From patent US20200016231A1, “BIOFILM DISRUPTING COMPOSITION” (Whiteley Corporation Pty Ltd, priority 2016, published 2020) come the findings set out here.

Test [1] deals with Staphylococcus agalactiae. The test is described as follows: organism not typed. It is filed as cell-based, Streptococcus agalactiae. To be noted: for viability at 10000 µM: GSH 10 mM; for viability at 15000 µM: GSH 15 mM; for viability at 30000 µM: GSH 30 mM. The method, then:
The treatments shown in column 1 of Table 5 were tested against four strains of […] agalactiae, (veterinary strains ex Cow mastitis). […] The treatments shown in column 1 of Table 13 were tested against four strains of […] agalactiae, (veterinary strains ex Cow mastitis).

The next test concerns Klebsiella pneumoniae. The test is described as follows: Biofilm viability, resazurin assay, Klebsiella pneumoniae clinical isolates. The format is cell-based. To be noted: read-out: % bacterial viability; for viability at 10000 µM: GSH 10 mM; for viability at 15000 µM: GSH 15 mM; for viability at 30000 µM: GSH 30 mM. The method, then: Bacterial isolates were grown in Tryptone Soya Broth (TSB) medium for 24 hours at 37° C., in a shaking incubator set at 150 rpm. After this time the organisms were harvested by centrifugation (5000×g, 5 min at 10° C.). After centrifugation, the supernatant liquid was removed and the bacterial pellet was suspended in 1×Phosphate Buffered Saline (PBS). To initiate biofilm growth, the bacterial suspension from PBS was immediately re-suspended in TSB and 250 μL of bacterial cell suspension (OD600=0.5±0.05) were added into the wells of 96-well plates (Corning Corp. USA) and incubated at 37° C. for 48 h at 150 r.p.m.
After 24 h, treated biofilms supernatant were replaced with 200 μL of 1×PBS, followed by addition of 15 μL of a 0.05% w/v solution of resazurin (Sigma-Aldrich), and incubated further at 37° C., 150 r.p.m.
After a further 24 h, the fluorescent intensity of the biofilm was determined at Ex544 nm and Em590 nm (Tecan infinite M1000 pro microplate reader). Results are plotted as percentage (%) of bacterial vaiability calculated based on fluorescent intensity. Control or untreated bacterial biofilm fluorescent intensity always considered as 100% bacterial viability and % viability under rest of treatment conditions were calculated with reference to control.
It should be noted that the Resazurin assay works by recording fluorescence intensity and depends upon two factors (total number of bacteria and total number of viable bacteria in a given biofilm sample).
The treatments shown in column 1 of table 7 were tested against three clinical isolates of Klebsiella pneumoniae.
(In general: Alamar Blue is a resazurin reagent that responds to reducing activity.)

[2] abbreviates: read-out: % bacterial viability, S. agalactiae # 30.
[3] abbreviates: read-out: % bacterial viability, S. agalactiae # 44.
The mark [4] stands for this setting: read-out: % bacterial viability, S. agalactiae # 70.
[5] abbreviates: read-out: % bacterial viability, S. agalactiae # 88.
The mark [6] stands for this setting: read-out: % bacterial viability, S. agalactiae # 106.

Structures are written as SMILES. Read-outs that look alike come from different tables or passages of the source.

A word on the viability: it is a read-out of living cells in per cent, often relative to untreated cells. For `N[C@@H](CCC(=O)N[C@@H](CS)C(=O)NCC(=O)O)C(=O)O` [GSH, glutathione], the viability at 10000 µM in test [1] (setting [2]) was 104%; in test [1] (setting [3]) it was 87%; in test [1] (setting [4]), 89.2%; in test [1] (setting [5]), 88%; in test [1] (setting [6]), 103%; in the test on Klebsiella pneumoniae (374450 Catheter urine), 86%. Also, the figures for the viability at 10000 µM in the test with Klebsiella pneumoniae (377951 Left hip wound) and in the test on Klebsiella pneumoniae (385261 Neck wound) were 81.6% and 78.8%, respectively. Further, the viability at 15000 µM is 80.7% in test [1] (setting [2]); 73.9% in test [1] (setting [3]); 79.4% in test [1] (setting [4]); 81.6% in test [1] (setting [5]); 83.2% in test [1] (setting [6]); 72.8% in the test on Klebsiella pneumoniae (374450 Catheter urine). The figures for the viability at 15000 µM in the test on Klebsiella pneumoniae (377951 Left hip wound) and in the test with Klebsiella pneumoniae (385261 Neck wound) were 70.8% and 62.5%, respectively. Moreover, the viability at 30000 µM was found to be 35.3% in test [1] (setting [2]); 29.2% in test [1] (setting [3]); 38.3% in test [1] (setting [4]); 25% in test [1] (setting [5]); 29.2% in test [1] (setting [6]); 16.8% with Klebsiella pneumoniae (374450 Catheter urine). The viability at 30000 µM is 9.13% with Klebsiella pneumoniae (377951 Left hip wound) and 14.1% in the test with Klebsiella pneumoniae (385261 Neck wound).
